In PubChem BioAssay (NCI):
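All cell lines were grown in 96-well plates and treated with compound for 48 hours. GI50 = concentration required for 50% inhibition of growth. At the TGI there is no net growth.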

Tests used:
Test in all cases: growth of human tumour cells (NCI), 48 h
OVCAR-5 ovarian = system: OVCAR-5 ovarian
SK-OV-3 ovarian = system: SK-OV-3 ovarian
K-562 leukemia = system: K-562 leukemia
SF-295 CNS = system: SF-295 CNS
HOP-92 NSCLC = system: HOP-92 NSCLC
MALME-3M melanoma = system: MALME-3M melanoma
HT29 colon = system: HT29 colon
UACC-257 melanoma = system: UACC-257 melanoma
RPMI-8226 leukemia = system: RPMI-8226 leukemia
KM12 colon = system: KM12 colon
UACC-62 melanoma = system: UACC-62 melanoma
M14 melanoma = system: M14 melanoma
TK-10 renal = system: TK-10 renal
HCC-2998 colon = system: HCC-2998 colon
OVCAR-4 ovarian = system: OVCAR-4 ovarian
HOP-62 NSCLC = system: HOP-62 NSCLC
OVCAR-3 ovarian = system: OVCAR-3 ovarian
HCT-116 colon = system: HCT-116 colon
COLO 205 colon = system: COLO 205 colon
NCI-H23 lung = system: NCI-H23 lung
A498 renal = system: A498 renal
HOP-18 NSCLC = system: HOP-18 NSCLC
DMS 273 small cell lung = system: DMS 273 small cell lung
EKVX NSCLC = system: EKVX NSCLC
LOX IMVI melanoma = system: LOX IMVI melanoma
SN12C renal = system: SN12C renal
SF-268 CNS = system: SF-268 CNS
SK-MEL-2 melanoma = system: SK-MEL-2 melanoma
IGROV1 ovarian = system: IGROV1 ovarian
SF-539 CNS = system: SF-539 CNS
UO-31 renal = system: UO-31 renal
A549 NSCLC = system: A549 NSCLC
HL-60(TB) leukemia = system: HL-60(TB) leukemia
LXFL 529 NSCLC = system: LXFL 529 NSCLC
OVCAR-8 ovarian = system: OVCAR-8 ovarian
CCRF-CEM leukemia = system: CCRF-CEM leukemia
NCI-H460 lung = system: NCI-H460 lung
DMS 114 small cell lung = system: DMS 114 small cell lung
NCI-H226 lung = system: NCI-H226 lung
786-0 renal = system: 786-0 renal
SNB-19 CNS = system: SNB-19 CNS
CAKI-1 renal = system: CAKI-1 renal
M19-MEL melanoma = system: M19-MEL melanoma
SNB-78 CNS = system: SNB-78 CNS
SK-MEL-28 melanoma = system: SK-MEL-28 melanoma
DLD-1 colon = system: DLD-1 colon
SNB-75 CNS = system: SNB-75 CNS
SW-620 colon = system: SW-620 colon
NCI-H522 lung = system: NCI-H522 lung
XF 498 CNS = system: XF 498 CNS
MOLT-4 leukemia = system: MOLT-4 leukemia
RXF 393 renal = system: RXF 393 renal
U251 CNS = system: U251 CNS
ACHN renal = system: ACHN renal
HCT-15 colon = system: HCT-15 colon
SK-MEL-5 melanoma = system: SK-MEL-5 melanoma
KM20L2 colon = system: KM20L2 colon
MDA-MB-435 = system: MDA-MB-435
MDA-N = system: MDA-N

With O=C1c2ccccc2C(=O)c2c(NCCNCCO)ccc(O)c21 the TGI (OVCAR-5 ovarian) was 8.33 µM, the TGI (SK-OV-3 ovarian) was 13.8 µM and the TGI (K-562 leukemia) was > 100 µM. The TGI (SF-295 CNS) was 15.8 µM, the TGI (HOP-92 NSCLC) was 13.4 µM and the TGI (MALME-3M melanoma) was 11.7 µM. The TGI (HT29 colon) was 10.2 µM, the TGI (UACC-257 melanoma) was 13.5 µM and the TGI (RPMI-8226 leukemia) was 11.7 µM. It also gave a TGI (KM12 colon) of 8.1 µM, a TGI (UACC-62 melanoma) of 13.6 µM and a TGI (M14 melanoma) of 15.8 µM. For the same compound, the TGI (TK-10 renal) was 15.3 µM, the TGI (HCC-2998 colon) was 17.8 µM and the TGI (OVCAR-4 ovarian) was 6.53 µM. For the same compound, the TGI (HOP-62 NSCLC) was 14.5 µM, the TGI (OVCAR-3 ovarian) was 19.5 µM and the TGI (HCT-116 colon) was 12.9 µM. It also gave a TGI (COLO 205 colon) of 10.3 µM, a TGI (NCI-H23 lung) of 12 µM and a TGI (A498 renal) of 19.4 µM. It also gave a TGI (HOP-18 NSCLC) of 21.4 µM, a TGI (DMS 273 small cell lung) of 10.7 µM and a TGI (EKVX NSCLC) of 14 µM. For the same compound, the TGI (LOX IMVI melanoma) was 2.85 µM, the TGI (SN12C renal) was 12.8 µM and the TGI (SF-268 CNS) was 13.1 µM. The TGI (SK-MEL-2 melanoma) was 14.7 µM, the TGI (IGROV1 ovarian) was 13.4 µM and the TGI (SF-539 CNS) was 12.1 µM. The TGI (UO-31 renal) was 5.58 µM, the TGI (A549 NSCLC) was 11.2 µM and the TGI (HL-60(TB) leukemia) was 8.77 µM. It also gave a TGI (LXFL 529 NSCLC) of 15.5 µM, a TGI (OVCAR-8 ovarian) of 13.5 µM and a TGI (CCRF-CEM leukemia) of 17.3 µM. The TGI (NCI-H460 lung) was 6.85 µM, the TGI (DMS 114 small cell lung) was 17.4 µM and the TGI (NCI-H226 lung) was 6.56 µM. The TGI (786-0 renal) was 15.9 µM, the TGI (SNB-19 CNS) was 14.2 µM and the TGI (CAKI-1 renal) was 11.5 µM. It also gave a TGI (M19-MEL melanoma) of 12.4 µM, a TGI (SNB-78 CNS) of 20.2 µM and a TGI (SK-MEL-28 melanoma) of 11.4 µM. The TGI (DLD-1 colon) was 15.6 µM, the TGI (SNB-75 CNS) was 15.7 µM and the TGI (SW-620 colon) was 12.9 µM. It also gave a TGI (NCI-H522 lung) of 11.8 µM, a TGI (XF 498 CNS) of 18.8 µM and a TGI (MOLT-4 leukemia) of 7.49 µM. For the same compound, the TGI (RXF 393 renal) was 7.92 µM, the TGI (U251 CNS) was 14.7 µM and the TGI (ACHN renal) was 11.2 µM. It also gave a TGI (HCT-15 colon) of 13.7 µM, a TGI (SK-MEL-5 melanoma) of 12.7 µM and a TGI (KM20L2 colon) of 12.3 µM.
With CCOC(=O)Nc1cc2c(c(N)n1)N=C(c1ccccc1)[C@H](C)N2 the TGI (OVCAR-5 ovarian) was 53.9 µM, the GI50 (SK-OV-3 ovarian) was < 0.0001 µM and the TGI (SK-OV-3 ovarian) was 78.8 µM. The TGI (HOP-92 NSCLC) was 47.1 µM, the TGI (MALME-3M melanoma) was 16.4 µM and the TGI (RPMI-8226 leukemia) was 22.4 µM. For the same compound, the TGI (UACC-62 melanoma) was 21.2 µM, the TGI (M14 melanoma) was 13.8 µM and the GI50 (TK-10 renal) was 14.2 µM. The TGI (TK-10 renal) was 57.3 µM, the GI50 (OVCAR-4 ovarian) was 16.2 µM and the TGI (OVCAR-4 ovarian) was > 100 µM. The GI50 (HOP-62 NSCLC) was < 0.0001 µM, the TGI (HOP-62 NSCLC) was 22.9 µM and the TGI (OVCAR-3 ovarian) was 0.016 µM. The TGI (HCT-116 colon) was 0.0173 µM, the TGI (COLO 205 colon) was < 0.0001 µM and the TGI (NCI-H23 lung) was 0.0464 µM. The GI50 (A498 renal) was < 0.0001 µM, the GI50 (HOP-18 NSCLC) was 29.1 µM and the TGI (HOP-18 NSCLC) was > 100 µM. The TGI (EKVX NSCLC) was > 100 µM, the TGI (LOX IMVI melanoma) was 17.7 µM and the GI50 (SN12C renal) was < 0.0001 µM. The TGI (SN12C renal) was > 100 µM, the TGI (SF-268 CNS) was > 100 µM and the TGI (SK-MEL-2 melanoma) was 13.6 µM. The TGI (IGROV1 ovarian) was > 100 µM, the GI50 (SF-539 CNS) was 0.0269 µM and the TGI (SF-539 CNS) was 0.0669 µM. For the same compound, the GI50 (UO-31 renal) was 10.1 µM, the TGI (UO-31 renal) was 44.5 µM and the TGI (A549 NSCLC) was > 100 µM. The TGI (HL-60(TB) leukemia) was < 0.0001 µM, the TGI (LXFL 529 NSCLC) was > 100 µM and the TGI (OVCAR-8 ovarian) was > 100 µM. The TGI (CCRF-CEM leukemia) was 0.0464 µM, the TGI (MDA-MB-435) was < 0.0001 µM and the TGI (NCI-H460 lung) was 0.0464 µM. The TGI (DMS 114 small cell lung) was < 0.0001 µM, the TGI (NCI-H226 lung) was 0.0464 µM and the TGI (SNB-19 CNS) was 87.5 µM. It also gave a TGI (M19-MEL melanoma) of 29.2 µM, a TGI (DLD-1 colon) of 25.1 µM and a TGI (MDA-N) of 0.000122 µM. For the same compound, the GI50 (SNB-75 CNS) was 17.9 µM, the TGI (SW-620 colon) was > 100 µM and the TGI (NCI-H522 lung) was < 0.0001 µM. For the same compound, the TGI (XF 498 CNS) was < 0.0001 µM, the TGI (MOLT-4 leukemia) was 14.5 µM and the GI50 (U251 CNS) was < 0.0001 µM. The TGI (ACHN renal) was 55 µM, the GI50 (HCT-15 colon) was < 0.0001 µM and the TGI (HCT-15 colon) was 17.3 µM. The TGI (KM20L2 colon) was < 0.0001 µM.
